System: hepatocyte-like cells
Conditions: against VitroHES reference protocol

morphology / appearance of hepatocyte-like cells: improved the appearance of the HCLC
Structure (SMILES): C[C@@H]1C[C@H]2[C@@H]3CCC4=CC(=O)C=C[C@]4(C)[C@@]3(F)[C@@H](O)C[C@]2(C)[C@@]1(O)C(=O)CO [Dexamethasone]

Source: patent publication US20110250686A1 (CELLARTIS AB, priority 2006, published 2011)
